Data as given in US20030125287A1, “Antisense oligonucleotides and methods to induce tumor cell death” (Hybridon, Inc., priority 2001, published 2003).
Entries after “also recorded” stand apart in the source; their conditions may differ. Oligonucleotides are written 5' to 3', each unit as a sugar letter and its base; * is a phosphorothioate linkage, no mark a phosphodiester; rarer units and linkages stand in square brackets, end groups in braces. Plain capitals give the bases only. d = 2'-deoxy (DNA)

Columns and labels:
survivin [1] = assay: Western blot of survivin protein in MSN cells treated with cell cycle checkpoint blockers; assay type: cell-based, human; details: for survivin expression / survivin protein abundance after cell cycle blocker: result in words, cell line not given; for fold increase of survivin protein relative to DMSO or EtOH: MSN cells, vinblastine 250 nM, nocadozole 10 μM, taxotere 1 μM
Experimental: Total protein was isolated from MSN cells either untreated or treated with vinblastine (250 nM), nocadozole (10 μM), or taxotere (1 μM). DMSO and ethanol (EtOH) were added as carriers. Each lane had 75 μg of total protein. The blots were cut at 32.9 kD, and the bottom blots were incubated with a survivin polyclonal antibody (1:500), while the top blot was incubated with a β-tubulin mAb (1:1000). In each of the treatments, the fold increase of survivin protein relative to DMSO or EtOH was vinblastine, 1.9; nocadozole, 2.6; taxotere, 1.7.
(§1) To block cells in G2/Ml MSN cells or TC620 cells were treated with 10 μM nocodazole, 1 μM taxotere, or 250 nM vinblastine for 16 hours, at which time total protein homogenates were isolated and proteins were examined following sodium dodecyl sulfate-polyacrylamide gel electrophoresis (SDS-PAGE) and immunoblotting.
(§2) Ten micrograms of the fusion protein was incubated with the survivin antibody (1:500) at 4° C. for 2 hours to overnight prior to immunoblotting. […] Blots were cut at 32.9 kD, and the bottom part of the blots were incubated with the survivin antibody overnight at 4° C. and visualized by enhanced chemiluminescence (Enhanced Chemiluminescence, Amersham, Arlington Heights, Ill.) as previously described (Sharma et al. Cell. Motil. Cytoskeleton 27:234-247).

XIAP = details: MSN cells; 400 nM; 48 hours (FIG. 10A)
Experimental: MSN cells were treated with lipofectin or 400 nM survivin antisense oligonucleotides 900, 901, 903, 904, 905 and 906. Total protein was isolated 48 hours after treatment, and 100 μg of protein was loaded per lane. The blot was incubated with a monoclonal antibody against XIAP (1:1000; IgG1). Visualization was by enhanced chemiluminescence (ECL). […] The experiment was performed twice.
Total protein homogenates were prepared according to a previously described procedure (Albala et al. (1995) J. Neurochem. 64:2480-2490). Protein content was measured using the Bio-Rad detection system (Bio-Rad Laboratories, Hercules, Calif.). Equal amounts of protein were analyzed by SDS-PAGE on 10% gels (Laemmli (1970) Nature 227:680-685). The resolved polypeptides were electrophoretically transferred to nitrocellulose (Towbin et al. (1979) Proc. Natl. Acad. Sci. USA 76:4350-4354).
Survivin polyclonal antibody was purchased from R & D Systems, Inc. (Minneapolis, Minn.). […] A generic β-tubulin monoclonal antibody (TUB 2.1) was purchased from SIGMA (St. Louis, Mo.). The XIAP mAb was purchased from StressGen Biotechnologies Corp. (Victoria, Canada). The poly-ADP ribosyl polymerase (PARP) mAb was purchased from PharMingen/Transduction Laboratories (San Diego, Calif.).

MSN cells = assay: Flow cytometry of MSN cells treated with G2/M blockers; assay type: cell-based, human
Experimental: Next, the regulation of survivin expression at G2/M cell cycle checkpoints was evaluated. First, survivin expression was increased following treatment with the G2/M checkpoint blockers, vinblastine, nocodazole, and taxotere.

survivin [2] = assay: Western blot of survivin protein in antisense oligonucleotide-treated MSN cells; assay type: cell-based, human
Experimental: Six survivin (900-906) antisense oligonucleotides were administered at 400 nM to MSN cells in the presence of lipofectin for 48 hours. Each lane has 100 μg of protein. The blots were cut at 32.9 kD and the bottom incubated with the survivin polyclonal antibody (1:500), while the top was incubated with β-tubulin.
Since survivin antisense oligonucleotide 903 decreased survivin protein levels by 76%, the dose dependency of 903 on survivin protein levels was further studied. As expected, mismatched oligonucleotides had no effect on the relative abundance of survivin. […] In the presence of lipofectin, survivin antisense oligonucleotide 903 was administered to MSN cells for 48 hours at 50 nM to 200 nM. Total protein (100 μg) was loaded/lane.
Survivin antisense oligonucleotide 904 decreased survivin protein levels by 46% and 60% while survivin levels were unchanged in cells incubated with the mismatched oligonucleotide 1132. MSN cells were treated with lipofectin, survivin antisense oligonucleotide 904 or 908 at 400 nM and 600 nM, or mismatched oligonucleotide 1132 at 400 nM concentrations. Total protein (100 μg) was separated by SDS polyacrylamide gel electrophoresis and transferred to a nitrocellulose support. The blots were cut at 32.9 kD and the bottom blots incubated with the survivin polyclonal antibody (1:500), while the top blots were incubated with tubulin.
The antisense oligonucleotides were synthesized on solid support with an automated DNA synthesizer using β-cyanoethylphosphoramidite chemistry. In order to prevent rapid degradation of the antisense oligonucleotides by cellular nucleases, oxidation was carried out with Becauge sulfurizing agent to obtain phosphorothioate backbone modified oligonucleotides. After their synthesis, the oligonucleotides were released from the solid support, deprotected, purified by reverse-phase HPLC, desalted, filtered and lyophilized. The purity and sequence integrity of oligonucleotides was ascertained by capillary gel electrophoresis and MALDI-TOF mass spectral analysis and the concentrations measured at […]. Cells were grown in 100 mm dishes and oligonucleotide treatment was performed on subconfluent cultures in the presence of Lipofectin (GIBCO) according to the manufacturer. Forty-eight hours following treatment, total protein homogenates were isolated.
as §2

caspase-3 [3] = assay: Caspase-3 activity assay in MSN cells; assay type: cell-based, human
Experimental: MSN cells were treated with lipofectin, 400 nM survivin antisense oligonucleotide 903, 904, or mismatched oligonucleotide 1132, for a 48 hour period. Cell pellets were washed twice in cold PBS and re-suspended in ice-cold hypotonic cell lysis buffer (25 mM HEPES, pH 7.5, 5 mM MgCl2, 5 mM EDTA, 5 mM DTT, 2 mM PMSF, 10 μg/ml pepstatin A, 10 μg/ml leupeptin). Re-suspended pellets were incubated on ice for 20 min, followed by brief sonication for two seconds. Lysates were centrifuged at 14,000 rpm for 20 minutes at 4° C. The supernatant was retained and the protein concentration analyzed by the Bio-Rad protein assay described above.
Supernatants were assayed in triplicate, with and without the caspase-3 inhibitor, Ac-DEVD-CHO, using black opaque, 96 well, flat bottom plates (Greiner Laboratories, USA Scientific Inc., Orlando, Fla.). 50-100 μg of the supernatant was incubated in caspase-3 assay buffer (100 mM HEPES, pH 7.5, 10% sucrose, 0.1% CHAPS and 10 mM DTT) with either 2 μl of DMSO or 2 μl of 2.5 mM Ac-DEVD-CHO (Pharmingen, San Diego, Calif.) so that the final concentration of the inhibitor was 50 μM in a final volume of 100 μl. It was then incubated at 30° C. for 30 minutes. Subsequently, 2 μl of the caspase-3 substrate 2.5 mM Ac-DEVD-AMC (Pharmingen, San Diego, Calif.) (final concentration 50 μM)) was added to each well. Plates were incubated at 30° ° C. for 60 minutes in the dark.
Fluorescence of the reaction was measured using a SPECTRAmax GEMINI spectrofluorometer using SOFTmax® PRO software (Molecular Devices, Sunnyvale, Calif.) at an excitation wavelength of 355 nm and an emission wavelength of 460 nm with a cutoff filter of 455 nm. The data is presented as the ratio of the mean relative fluorescence units/mg protein±SD.

PARP = PARP cleavage immunoblot in MSN cells; assay type: cell-based, human
Experimental: To determine whether MSN cell death by survivin antisense oligonucleotides was mediated by caspase-3 activation, studies were conducted to examine whether PARP was cleaved following survivin antisense treatment. […] Since no PARP cleavage was detected, further tests were conducted to determine whether survivin antisense-treated cells have any active caspase-3.

caspase-3 [4] = assay: Caspase-3 activity assay in MSN cells; assay type: cell-based, human; remark: listed apart in the source
survivin [5] = assay: Western blot of survivin protein in nocodazole-treated TC620 cells; assay type: cell-based, human; details: nocodazole 10 μM, 24 h
Experimental: The Western blot as represented in FIG. 2B was prepared by isolating total protein from nocadozole-treated (10 μM, 24 h) and untreated TC620 cells, MSN cells, and Jurkat cells. Each lane had 75 μg of total protein.
as §1

[6] = 400 nM, lipofectin, 48 hours (FIG. 3A)

## CN1CC[C@H](c2c(O)cc(O)c3c(=O)cc(-c4ccccc4Cl)oc23)[C@H](O)C1 [flavopiridol]
Survivin [1]
  survivin expression / survivin protein abundance after cell cycle blocker: did not alter survivin protein abundance

## d(GAGCCTTCCTCTTCATGTCC) (antisense dG*dA*dG*dC*dC*dT*dT*dC*dC*dT*dC*dT*dT*dC*dA*dT*dG*dT*dC*dC) [Oligo 905]
XIAP
  fold change of XIAP protein over β-tubulin relative to lipofectin: 7.6 fold

## CC(=O)O[C@@]12CO[C@@H]1C[C@H](O)[C@@]1(C)C(=O)[C@H](O)C3=C(C)[C@@H](OC(=O)[C@H](O)[C@@H](NC(=O)OC(C)(C)C)c4ccccc4)C[C@@](O)([C@@H](OC(=O)c4ccccc4)[C@H]21)C3(C)C [taxotere]
Survivin [1]
  fold increase of survivin protein relative to DMSO or EtOH: 1.7 fold
  survivin expression / survivin protein abundance after cell cycle blocker: increased
MSN cells
  cell cycle phase by flow cytometry: blocked at the G2/M cell cycle phase

## d(CAGTGGATGAAGGCAGCCTC) (antisense dC*dA*dG*dT*dG*dG*dA*dT*dG*dA*dA*dG*dG*dC*dA*dG*dC*dC*dT*dC) [Oligo 901]
Survivin [2]; [6]
  percentage of survivin protein over β-tubulin relative to lipofectin: 38.3%
XIAP
  fold change of XIAP protein over β-tubulin relative to lipofectin: 3.9 fold

## Ac-DEVD-CHO [reference compound]
caspase-3 [3]; added to MSN cell supernatants, final concentration 50 μM
  effect of caspase-3 inhibitor on caspase-3 activation in the assay: eliminated caspase-3 activation

## d(CCCTAGCTCACACTCTCATT) (antisense dC*dC*dC*dT*dA*dG*dC*dT*dC*dA*dC*dA*dC*dT*dC*dT*dC*dA*dT*dT) [Oligo 903, 20-mer phosphorothioate survivin antisense oligonucleotide, complementary to survivin mRNA 4385-4404]
Survivin [2]; 50 nM, 48 hours (FIG. 3B)
  percentage of survivin protein over β-tubulin relative to lipofectin: 83.9%
Survivin [2]; 75 nM, 48 hours (FIG. 3B)
  percentage of survivin protein over β-tubulin relative to lipofectin: 62.6%
Survivin [2]; 100 nM, 48 hours (FIG. 3B)
  percentage of survivin protein over β-tubulin relative to lipofectin: 95.6%
Survivin [2]; 200 nM, 48 hours (FIG. 3B)
  percentage of survivin protein over β-tubulin relative to lipofectin: 48.5%
  reduction in survivin: 51%
Survivin [2]; 400 nM, 48 hours (FIG. 3A)
  decrease in survivin protein levels relative to lipofectin-treated control, normalized to β-tubulin: 76%
Survivin [2]; [6]
  percentage of survivin protein over β-tubulin relative to lipofectin: 24.3%
Survivin [2]; lipofectin, 48 hours
  effect on survivin protein levels: concentration-dependent decrease in survivin protein levels
caspase-3 [3]; MSN cells, 400 nM, 48 hours
  caspase-3 activity: no significant increase in caspase-3 activity; also recorded: did not activate caspase-3
caspase-3 [3]; MSN cells, 400 nM, 48 hours, triplicate
  caspase-3 activity, Relative units/mg protein +/− SD: 27,850 ± 2311 Relative units/mg protein
XIAP
  fold change of XIAP protein over β-tubulin relative to lipofectin: 5.2 fold
PARP
  PARP cleavage, words: did not activate caspase-3 or cleave the caspase-3 substrate, PARP

## d(GCCAGTTCTTGAATGTAGAG) (antisense dG*dC*dC*dA*dG*dT*dT*dC*dT*dT*dG*dA*dA*dT*dG*dT*dA*dG*dA*dG) [Oligo 900]
Survivin [2]; [6]
  percentage of survivin protein over β-tubulin relative to lipofectin: 77.7%
XIAP
  fold change of XIAP protein over β-tubulin relative to lipofectin: 2.3 fold

## CC[C@]1(O)C[C@@H]2CN(CCc3c([nH]c4ccccc34)[C@@](C(=O)OC)(c3cc4c(cc3OC)N(C)[C@H]3[C@@](O)(C(=O)OC)[C@H](OC(C)=O)[C@]5(CC)C=CCN6CC[C@]43[C@@H]65)C2)C1 [vinblastine]
Survivin [1]
  fold increase of survivin protein relative to DMSO or EtOH: 1.9 fold
  survivin expression / survivin protein abundance after cell cycle blocker: increased
MSN cells
  cell cycle phase by flow cytometry: blocked at the G2/M cell cycle phase

## CN[C@@H]1C[C@H]2O[C@@](C)([C@@H]1OC)n1c3ccccc3c3c4c(c5c6ccccc6n2c5c31)C(=O)NC4 [Staurosporine]
caspase-3 [4]; 1 μM, 6 hours, triplicate
  caspase-3 activity, Relative units/mg protein +/− SD: 264,281 ± 8130 Relative units/mg protein
caspase-3 [4]; staurosporine treatment
  fold increase in caspase-3 activity: over 7 fold

## COC(=O)Nc1nc2ccc(C(=O)c3cccs3)cc2[nH]1 [nocodazole]
Survivin [1]
  fold increase of survivin protein relative to DMSO or EtOH: 2.6 fold
  survivin expression / survivin protein abundance after cell cycle blocker: increased
Survivin [5]
  fold increase in survivin protein: 1.6 fold
